Results reported in patent US20060147923A1, “Nucleic acid sequences encoding novel point mutations on mglur2 and mglur3” (priority 2002, published 2006).

Molecular target: T1, wild type mGluR2 (Homo sapiens, UniProt Q14416)
T1 construct: expressed in transfected cells; host or cells: HEK293 cells, transient lipid transfection (Effectene, MAGEC plate protocol)
Experiment: Phosphoinositide hydrolysis, wild-type mGluR2 (FIG. 1)
Format: cell-based
Settings: HEK-293 cells transfected with wild-type mGluR2; 5 uM glutamate; normalized to 1 mM glutamate control
From the text: For mGluR2 and mGluR3 mutants, the mGluR2/Gα16 nucleic acids are mixed with a lipid-based transfection reagent and are deposited into a well of a multi-well plate coated with fibronectin. The resulting DNA/lipid complexes are subsequently dried in vacuo then seeded with HEK293 cells. This is based on a method designated as MAGECTM, and disclosed in U.S. Provisional Application No. 60/372,476, filed Apr. 15, 2002, and titled, “Matrix Analyses of Gene Expression in Cells.”
11. Approximately forty hours after plating, the cells are analyzed in the phosphoinositide hydrolysis assay.
Phosphoinositide hydrolysis was determined by measuring the accumulation of tritiated inositol monophosphate ([^3H]-IP1) in the presence of LiCl. The method is taken from Berridge: Biochem J (1983) 212: 849-58. This determination provides for comparative data on the level of potentiation and loss of potentiation when testing a purported or known allosteric modulator in the presence of glutamate and either a wild-type mGluR2 or mGluR3 and at least one mutant of the respective mGluR2 or mGluR3.
1. HEK293 cells that were previously transiently transfected with hmGluR2 and Gα16 were labeled overnight with 1 μCi/well myo-[2-^3H]-inositol in a […] DMEM medium.
2. […]
12. The sample was quantified in a scintillation counter after a two-hour waiting period. […]

T1 sequence (Q14416 19-872): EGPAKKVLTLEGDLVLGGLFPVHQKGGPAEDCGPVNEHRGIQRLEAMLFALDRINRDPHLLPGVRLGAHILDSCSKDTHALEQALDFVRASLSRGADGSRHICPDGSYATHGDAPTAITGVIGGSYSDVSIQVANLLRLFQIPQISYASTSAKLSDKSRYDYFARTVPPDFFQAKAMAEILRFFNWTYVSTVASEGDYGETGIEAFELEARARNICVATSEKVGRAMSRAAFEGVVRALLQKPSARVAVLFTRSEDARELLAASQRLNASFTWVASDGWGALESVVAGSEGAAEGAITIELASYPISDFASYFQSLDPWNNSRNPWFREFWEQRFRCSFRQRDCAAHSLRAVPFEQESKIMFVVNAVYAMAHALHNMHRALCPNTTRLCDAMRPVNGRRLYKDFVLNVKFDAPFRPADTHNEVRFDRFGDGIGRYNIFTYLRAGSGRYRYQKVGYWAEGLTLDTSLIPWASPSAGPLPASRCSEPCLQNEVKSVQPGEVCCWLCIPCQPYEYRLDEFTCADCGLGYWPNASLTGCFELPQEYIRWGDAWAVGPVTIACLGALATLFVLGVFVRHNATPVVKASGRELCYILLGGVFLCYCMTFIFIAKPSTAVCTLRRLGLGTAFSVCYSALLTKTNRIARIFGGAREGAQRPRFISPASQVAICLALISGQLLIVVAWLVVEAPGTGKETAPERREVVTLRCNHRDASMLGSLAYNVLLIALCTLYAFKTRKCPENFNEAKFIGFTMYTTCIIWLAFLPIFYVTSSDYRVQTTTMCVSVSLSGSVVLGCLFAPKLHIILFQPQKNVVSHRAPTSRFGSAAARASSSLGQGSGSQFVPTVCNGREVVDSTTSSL

- effect of modulator on response to glutamate, percent response compared to 1 mM glutamate positive control: up-regulating the response of mGluR2
Structure (SMILES): COc1ccccc1Oc1cccc(N(Cc2cccnc2)S(=O)(=O)CC(F)(F)F)c1 [Compound A]
